# Where two headings read alike, the source gives them in different places.
# Key:
# A. baumannii DH-243 [1] = experiment: Agar well-diffusion assay; type: cell-based; conditions: Acinetobacter baumannii, DH243; A. baumannii DH-243; 50 µL of 10 mM per well; read-out: Diameter of Inhibition Zones (AZOI)
# Protocol: (§1) The synthesized compounds were initially screened for their in vitro antibacterial activity against the different Gram-positive and Gram-negative bacteria, tested using the agar well-diffusion assay. The turbidity of the bacterial suspensions was established to the 0.5 McFarland turbidity standard. The activity was performed on TS agar plates. The bacteria were spread on the surface of the agar plates, and 10 mm wells were screwed into the agar plates. The assay was performed under aseptic conditions. An aliquot of 50 µL of each tested compound (10 mM) was added to the wells, and the plates were incubated overnight at 37 °C. Both Erythromycin and Amikacin antibiotic disks were used as positive control, while DMSO solvent was used as a negative control in this study. The diameters of inhibition zones were measured and recorded in mm. A comparative study of the synthesized compounds was determined. The experiment was performed in triplicates.
# E. coli DH-5987 [2] = experiment: Agar well-diffusion assay; type: cell-based; conditions: Escherichia coli, DH5987, 50 µL of 10 mM per well, read-out: Diameter of Inhibition Zones (AZOI)
# Protocol: as §1
# E. faecalis DH-5478 [3] = experiment: Agar well-diffusion assay; type: cell-based; conditions: Enterococcus faecalis
# Protocol: as §1
# S. aureus DH-432 [4] = experiment: Agar well-diffusion assay; type: cell-based; conditions: Staphylococcus aureus
# Protocol: as §1
# S. pyogenes DH-3467 [5] = experiment: Agar well-diffusion assay; type: cell-based; conditions: Streptococcus pyogenes
# Protocol: as §1
# P. aeruginosa DH-5698 [6] = experiment: Agar well-diffusion assay; type: cell-based, Pseudomonus aeruginosa; conditions: Pseudomonas aeruginosa, DH5698; P. aeruginosa DH-5698; 50 µL of 10 mM per well; read-out: Diameter of Inhibition Zones (AZOI)
# Protocol: as §1
# E. faecalis DH-5478 [7] = experiment: Broth microdilution MIC/MBC; type: cell-based, Enterococcus faecalis; conditions: for MIC: Enterococcus faecalis, DH5478, 24 h, read-out: MIC (Mean ± SEM); for MBC/MIC: value in brackets
# Protocol: (§2) The broth microdilution method was taken as a basis to detect the MICs of pyrazole compounds against tested clinical isolates, according to the Clinical Laboratory and Standards Institute guidelines. The broth cultures were used to prepare the bacterial inoculums, and the suspensions were adjusted to the standard 0.5 McFarland turbidity. Stock solutions of the synthesized pyrazoles were prepared in pure DMSO and further serially diluted with TS broth in the concentration range from 128 µg/mL to 0.0625 µg/mL. A well containing noninoculated TS broth, free of any antimicrobial agents, was also included to ensure the medium sterility, while Erythromycin and Amikacin served as positive controls. Bacterial growth was determined by adding 20 µL of 0.5% TTC (2,3,5-triphenyltetrazolium chloride) aqueous solution. […] All experiments were repeated three times. The bactericidal effect from each concentration of the pyrazole and pyrazolo[1,5-a]pyrimidine derivatives showing growth inhibition was further studied. For this study, a loopful of 5 µL was taken from each no-visible growth tube and streaked onto plates of TS agar.
# S. aureus DH-432 [8] = experiment: Broth microdilution MIC/MBC; type: cell-based, Staphylococcus aureus; conditions: for MIC: Staphylococcus aureus, DH432, 24 h, read-out: MIC (Mean ± SEM); for MBC/MIC: value in brackets
# Protocol: as §2
# S. pyogenes DH-3467 [9] = experiment: Broth microdilution MIC/MBC; type: cell-based, Streptococcus pyogenes; conditions: for MIC: Streptococcus pyogenes, DH3467, 24 h, read-out: MIC (Mean ± SEM); for MBC/MIC: value in brackets
# Protocol: as §2
# A. baumannii DH-243 [10] = experiment: Broth microdilution MIC/MBC; type: cell-based, Acinetobacter baumannii; conditions: for MIC: Acinetobacter baumannii, DH243, 24 h, read-out: MIC (Mean ± SEM); for MBC/MIC: value in brackets
# Protocol: as §2
# E. coli DH-5987 [11] = experiment: Broth microdilution MIC/MBC; type: cell-based, Escherichia coli; conditions: E. coli DH-5987; for MBC/MIC: value in brackets; for MIC: Escherichia coli, DH5987, 24 h, read-out: MIC (Mean ± SEM)
# Protocol: as §2
# P. aeruginosa DH-5698 [12] = experiment: Broth microdilution MIC/MBC; type: cell-based, Pseudomonus aeruginosa; conditions: for MIC: Pseudomonas aeruginosa, DH5698, 24 h, read-out: MIC (Mean ± SEM); for MBC/MIC: value in brackets
# Protocol: as §2
# Gram-positive isolates = experiment: Broth microdilution MIC/MBC, summary; type: cell-based; conditions: Gram-positive isolates (E. faecalis, S. aureus, S. pyogenes)
# Protocol: as §2
# [13] = DH5478, E. faecalis DH-5478, 50 µL of 10 mM per well, read-out: Diameter of Inhibition Zones (AZOI)
# [14] = DH432, S. aureus DH-432, 50 µL of 10 mM per well, read-out: Diameter of Inhibition Zones (AZOI)
# [15] = DH3467, S. pyogenes DH-3467, 50 µL of 10 mM per well, read-out: Diameter of Inhibition Zones (AZOI)
smiles,measurement,setting,value
"CCOC(=O)c1ccc(N=Nc2c(N)nn3c(N)c(C#N)c(-c4ccc(OC)cc4)nc23)cc1 [Compound 9b, Ethyl-4-((2,7-diamino-6-cyano-5-(4-methoxyphenyl)pyrazolo[1,5-a]pyrimidin-3-yl)diazenyl)benzoate]",zone of inhibition at 10000 µM,A. baumannii DH-243 [1],23 mm
same,zone of inhibition at 10000 µM,E. coli DH-5987 [2],26.5 mm
same,zone of inhibition at 10000 µM,E. faecalis DH-5478 [3]; [13],24.3 mm
same,zone of inhibition at 10000 µM,S. aureus DH-432 [4]; [14],25 mm
same,zone of inhibition at 10000 µM,S. pyogenes DH-3467 [5]; [15],25.7 mm
same,zone of inhibition at 10000 µM,P. aeruginosa DH-5698 [6],25.4 mm
same,MIC,E. faecalis DH-5478 [7],2 ± 0.2 µg/mL
same,MBC/MIC,E. faecalis DH-5478 [7],1
same,MIC,S. aureus DH-432 [8],1.5 ± 0.2 µg/mL
same,MBC/MIC,S. aureus DH-432 [8],1
same,MIC,S. pyogenes DH-3467 [9],2 ± 0.3 µg/mL
same,MBC/MIC,S. pyogenes DH-3467 [9],0.5
same,MIC,A. baumannii DH-243 [10],2 ± 0.1 µg/mL
same,MBC/MIC,A. baumannii DH-243 [10],1
same,MBC/MIC,E. coli DH-5987 [11],0.5
same,MIC,E. coli DH-5987 [11],1 ± 0.3 µg/mL
same,MIC,P. aeruginosa DH-5698 [12],1.5 ± 0.2 µg/mL
same,MBC/MIC,P. aeruginosa DH-5698 [12],0.5
same,melting point,,210 to 212 °C
"CCOC(=O)c1ccc(N=Nc2c(N)nn3c(N)c(C#N)c(-c4ccc(Cl)cc4)nc23)cc1 [Compound 9c, Ethyl-4-((2,7-diamino-5-(4-chlorophenyl)-6-cyanopyrazolo[1,5-a]pyrimidin-3-yl)diazenyl)benzoate]",zone of inhibition at 10000 µM,A. baumannii DH-243 [1],23.9 mm
same,zone of inhibition at 10000 µM,E. coli DH-5987 [2],25.2 mm
same,zone of inhibition at 10000 µM,E. faecalis DH-5478 [3]; [13],23.1 mm
same,zone of inhibition at 10000 µM,S. aureus DH-432 [4]; [14],24.2 mm
same,zone of inhibition at 10000 µM,S. pyogenes DH-3467 [5]; [15],23.5 mm
same,zone of inhibition at 10000 µM,P. aeruginosa DH-5698 [6],24.1 mm
same,MIC,E. faecalis DH-5478 [7],4 ± 0.2 µg/mL
same,MBC/MIC,E. faecalis DH-5478 [7],1
same,MIC,S. aureus DH-432 [8],2 ± 0.3 µg/mL
same,MBC/MIC,S. aureus DH-432 [8],1
same,MIC,S. pyogenes DH-3467 [9],2 ± 0.1 µg/mL
same,MBC/MIC,S. pyogenes DH-3467 [9],1
same,MIC,A. baumannii DH-243 [10],4 ± 0.4 µg/mL
same,MBC/MIC,A. baumannii DH-243 [10],1
same,MBC/MIC,E. coli DH-5987 [11],1
same,MIC,E. coli DH-5987 [11],1 ± 0.3 µg/mL
same,MIC,P. aeruginosa DH-5698 [12],2 ± 0.2 µg/mL
same,MBC/MIC,P. aeruginosa DH-5698 [12],1
same,melting point,,288 to 290 °C
"CCOC(=O)c1ccc(N=Nc2c(N)nn3c(O)c(C#N)c(-c4ccc(Cl)cc4)nc23)cc1 [Compound 10b, Ethyl 4-((2-amino-5-(4-chlorophenyl)-6-cyano-7-hydroxypyrazolo[1,5-a]pyrimidin-3-yl)diazenyl)benzoate]",zone of inhibition at 10000 µM,A. baumannii DH-243 [1],24.2 mm
same,zone of inhibition at 10000 µM,E. coli DH-5987 [2],27.1 mm
same,zone of inhibition at 10000 µM,E. faecalis DH-5478 [3]; [13],25.1 mm
same,zone of inhibition at 10000 µM,S. aureus DH-432 [4]; [14],26.8 mm
same,zone of inhibition at 10000 µM,S. pyogenes DH-3467 [5]; [15],26.3 mm
same,zone of inhibition at 10000 µM,P. aeruginosa DH-5698 [6],26.3 mm
same,MIC,E. faecalis DH-5478 [7],2 ± 0.3 µg/mL
same,MBC/MIC,E. faecalis DH-5478 [7],1
same,MIC,S. aureus DH-432 [8],1.5 ± 0.3 µg/mL
same,MBC/MIC,S. aureus DH-432 [8],0.5
same,MIC,S. pyogenes DH-3467 [9],1.5 ± 0.2 µg/mL
same,MBC/MIC,S. pyogenes DH-3467 [9],0.5
same,MIC,A. baumannii DH-243 [10],2 ± 0.2 µg/mL
same,MBC/MIC,A. baumannii DH-243 [10],1
same,MBC/MIC,E. coli DH-5987 [11],0.5
same,MIC,E. coli DH-5987 [11],0.75 ± 0.1 µg/mL
same,MIC,P. aeruginosa DH-5698 [12],1.5 ± 0.1 µg/mL
same,MBC/MIC,P. aeruginosa DH-5698 [12],0.5
same,melting point,,270 to 272 °C
"CC[C@H]1OC(=O)[C@H](C)[C@@H](O[C@H]2C[C@@](C)(OC)[C@@H](O)[C@H](C)O2)[C@H](C)[C@@H](O[C@@H]2O[C@H](C)C[C@H](N(C)C)[C@H]2O)[C@](C)(O)C[C@@H](C)C(=O)[C@H](C)[C@@H](O)[C@]1(C)O [E, Erythromycin, reference compound]",zone of inhibition at 10000 µM,"E. faecalis DH-5478 [3]; DH5478, read-out: Diameter of Inhibition Zones (AZOI)",11 mm
same,zone of inhibition at 10000 µM,"S. aureus DH-432 [4]; DH432, read-out: Diameter of Inhibition Zones (AZOI)",12 mm
same,zone of inhibition at 10000 µM,"S. pyogenes DH-3467 [5]; DH3467, read-out: Diameter of Inhibition Zones (AZOI)",10.5 mm
same,MIC,E. faecalis DH-5478 [7],32 ± 0.1 µg/mL
same,MBC/MIC,E. faecalis DH-5478 [7],4
same,MIC,S. aureus DH-432 [8],8 ± 0.2 µg/mL
same,MBC/MIC,S. aureus DH-432 [8],2
same,MIC,S. pyogenes DH-3467 [9],64 ± 0.3 µg/mL
same,MBC/MIC,S. pyogenes DH-3467 [9],2
same,MBC,Gram-positive isolates; read-out: MBC,16 to 128 µg/mL
same,MIC,Gram-positive isolates; read-out: MIC,8 to 64 µg/mL
